Results published in patent US4487718A, “Peptides” (Kowa Company, Ltd., priority 1983, dated 1984).

Tests used:
[1] = molecular target: T1, activated blood coagulation factor XIII (Homo sapiens, UniProt P00488); experiment: Crosslinking capacity of the peptide (Ia) to fibrin (125I-labeled peptide, fibrin clot radioactivity); assay type: biochemical
T1 sequence (P00488 39-732 limits assumed): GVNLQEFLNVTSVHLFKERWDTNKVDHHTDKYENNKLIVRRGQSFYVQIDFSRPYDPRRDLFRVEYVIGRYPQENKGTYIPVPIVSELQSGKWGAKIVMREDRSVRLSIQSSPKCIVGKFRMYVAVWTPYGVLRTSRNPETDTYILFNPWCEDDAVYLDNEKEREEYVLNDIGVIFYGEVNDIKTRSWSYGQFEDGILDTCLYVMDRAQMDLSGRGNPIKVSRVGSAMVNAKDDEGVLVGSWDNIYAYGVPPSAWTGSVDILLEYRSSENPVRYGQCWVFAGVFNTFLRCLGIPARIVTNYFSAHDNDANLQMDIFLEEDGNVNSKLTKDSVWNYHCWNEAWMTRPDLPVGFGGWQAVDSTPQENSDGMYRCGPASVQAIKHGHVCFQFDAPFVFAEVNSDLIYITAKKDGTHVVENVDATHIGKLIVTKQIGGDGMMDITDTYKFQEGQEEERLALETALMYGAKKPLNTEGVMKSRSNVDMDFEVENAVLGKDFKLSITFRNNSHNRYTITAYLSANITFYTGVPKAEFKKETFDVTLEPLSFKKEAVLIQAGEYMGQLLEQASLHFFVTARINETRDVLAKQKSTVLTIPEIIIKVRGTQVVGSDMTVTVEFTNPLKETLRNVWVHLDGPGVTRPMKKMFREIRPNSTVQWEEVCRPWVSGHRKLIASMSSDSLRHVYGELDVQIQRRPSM
Experimental: To a mixed solution of 20 μl of the peptide (Ia) labeled with a radioactive isotope ^125 I, 20 μl of fibrinogen (30 mg/ml, 88 μM, containing 2 or 10 μ/ml of the blood coagulation factor XIII) and 140 μl of a Tris buffer, was added 20 μl of a mixed solution of thrombin (3.3 u/ml) and calcium chloride (50 mM). The resulting mixture was then incubated at 37° C.
The clotting sample was frozen instantaneously at each time with dry ice/acetone to terminate the reaction and then lyophilized. The resulting fibrin film was washed three times, each for 5 minutes, with 200 μl of 50 mM EDTA containing 1% of BSA (brovine serum albmin). The thus washed fibrin film was measured in its radioactivity to determine the amount of the peptide coupled with the fibrin [see "Biochim, Biophys, Acta", 661, 280-286, (1981)].

[2] = molecular target: T2, crosslinking of α2 -PI to fibrin (Homo sapiens, UniProt P00488); experiment: Inhibitory effect against the crosslinking of α2 -PI to fibrin; assay type: biochemical; settings: peptide 0-50 mM solution, α2 -PI 10 μM solution; FIG. 2
T2 sequence (P00488 39-732 limits assumed): T1 sequence (P00488 39-732 limits assumed)
Experimental: Twenty microliters of a mixed solution of thrombin (3.3 u/ml) and calcium chloride (50 mM) was added to a mixed solution consisting of 20 μl of fibrinogen (30 mg/ml, 88 μM, containing 10 u/ml of the blood coagulation factor XIII), 20 μl of α2 -PI (0.67 mg/ml, 10 μM), 20 μl of a ^125 I-labeled peptide (0-50 mM) and 120 μl of a Tris buffer. The amount of the peptide bonded to the resulting fibrin clot was then determined in the same manner as in Experiment 1.
On the other hand, the amount of α2 -PI coupled with a fibrin clot was also determined using ^125 I-labeled α2 -PI and an unlabeled peptide.

fibrin clot [3] = experiment: Fibrinolysis-accelerating effect: release of 125I from fibrin clots of platelet-rich plasma; parameters: species or system human; settings: peptide 0-500 μM, FIG. 3
Experimental: Healthy human blood to which sodium citrate had been added, was subjected to centrifugal separation to prepare platelet-rich plasma. A trace amount of ^125 I-labeled fibrinogen was added to and mixed with the platelet-rich plasma. 250 mM solutions of calcium chloride which contained the peptide (Ia) at different levels (0-5 mM) were poured, each in a volume of 20 μl, into glass test tubes. Each test tube was added with 180 μl of the above plasma and then allowed to stand at 37° C. A fibrin clot was formed in several minutes. Clot retraction started about 15 minutes later and was completed in about 30 minutes.
Thereafter, 800 μl of platelet-poor plasma which contained the peptide (Ia) at different levels (0-500 μM) and 1 u of Hirudin was added to each of the test tubes. The test tube was then incubated at 37° C. The contents were sampled periodically to measure ^125 I released into the supernatant.

fibrin clot [4] = experiment: Synergistic effects in combination with tissue plasminogen activator (TPA), added before or after clot formation; parameters: species or system human; settings: with melanoma-derived TPA, compared with no activator, FIGS. 4 and 5
Experimental: Healthy human blood to which sodium citrate had been added, was subjected to centrifugal separation to prepare platelet-rich plasma. A trace amount of ^125 I-labeled fibrinogen was added to and mixed with the platelet-rich plasma. 250 mM solutions of calcium chloride which contained the peptide (Ia) at different levels (0-5 mM) and 1 u/ml of a melanoma-derived tissue plasminogen activator (TPA), were poured 20 μl by 20 μl into glass test tubes, each of which was then added with 180 μl of the above plasma. A fibrin clot was formed in several minutes. Clot retraction started about 15 minutes later and was completed in about 30 minutes.
Thereafter, each test tube was added with 800 μl of platelet-poor plasma which contained the peptide (Ia) at different levels (0-500 μM) and 1 u of Hirudin. The test tube was then incubated at 37° C. The contents were sampled periodically to measure ^125 I released into the supernatant.
Healthy human blood to which sodium citrate had been added, was subjected to centrifugal separation to prepare platelet-rich plasma. A trace amount of ^125 I-labeled fibrinogen was added to and mixed with the platelet-rich plasma. 250 mM solutions of calcium chloride were poured 20 μl by 20 μl into glass test tubes, each of which was then added with 180 μl of the above plasma. A fibrin clot was formed in several minutes. […]

amount of the peptide coupled with the fibrin at equilibrium ([1]; 125I-labeled peptide, fibrinogen containing factor XIII, thrombin, calcium chloride, 37° C., FIG. 1): about 40%
crosslinking velocity to fibrin ([1]; compared with α2 -PI, FIG. 1): substantially the same as that of α2 -PI
glutamine substrate for the activated blood coagulation factor XIII ([1]; conclusion from Experiment 1): good glutamine substrate
inhibition of the crosslinking of α2 -PI to the fibrin [2]: inhibits competitively
Substance: L-Asn-L-Gln-L-Glu-L-Gln-L-Val-L-Ser-L-Pro-L-Leu-L-Thr-L-Gly-L-Leu-L-Lys-NH [peptide (Ia)]
fibrinolysis-accelerating effect (dissolution of fibrin clot) (fibrin clot [3]; human platelet-rich plasma clot, 37° C., compared with absence of peptide): has a fibrinolysis-accelerating effect
dependence of the fibrinolysis-accelerating effect on the amount added (fibrin clot [3]): proportional to the amounts of the peptide (Ia) added
fibrinolysis-accelerating effect in combination with a plasminogen activator (fibrin clot [4]): synergistically enhanced fibrinolysis-accelerating effect
